Data taken from patent US20260022143A1, “Cyclic Peptide Inhibitors of IL-23” (JANSSEN PHARMACEUTICA NV, priority 2022, published 2026).
Positions of bridges follow the written chain, without caps; N, C: chain ends. Non-standard residues stand in square brackets, D forms with d. Residues, ends and D or L forms follow the SMILES beside them. Trp(7-Me) = Cc1cccc2c(C[C@H](N)C(=O)O)c[nH]c12; 2Nal = N[C@@H](Cc1ccc2ccccc2c1)C(=O)O; AEF = NCCOc1ccc(C[C@H](N)C(=O)O)cc1; dNMeY = CN[C@H](Cc1ccc(O)cc1)C(=O)O; Pen = CC(C)(S)[C@H](N)C(=O)O; αMeK = C[C@](N)(CCCCN)C(=O)O

Test: Exposed Polar Surface Area (EPSA)
Format: physicochemical
Conditions: SFC on Chirex 3014 column; sample 1 mM DMSO stock
Excerpt: Exposed Polar Surface Area (EPSA) is an experimental descriptor of molecular polarity obtained from chromatographic retention in supercritical fluid chromatography (SFC).
The stationary phase (Chirex 3014(S)-valine and (R)-1-(alpha-naphthyl) ethylamine) was selected for its balance of lipophilic and polar attributes and its capacity to separate compounds with wide polarity differences. The mobile phase consists of methanol (+Ammonium formate) and CO2. Polar compounds are retained stronger under these conditions and a low-slope gradient of methanol achieves elution based on increasing polarity of the mobile phase. Results are normalized using calibration standards generating a linear relationship between retention times and EPSA values. The unit of EPSA is Å^2.
Along with the measurement of compounds of interest, a series of 8 calibration standards (see Materials) are analyzed generating a linear relationship between retention times and EPSA value. The 8 compounds used as calibration standard have their own EPSA value defined by G. Goetz based on the comparison with TPSA (see G. Goetz, L. Philippe and M. Shapiro, “EPSA: A novel supercritical fluid chromatography technique enabling the design of permeable cyclic peptides,” ACS Med. Chem. Lett., vol. 5, pp. 1167-1172, 2014 for more information). The slope from the linear relationship between EPSA values of these eight compounds and their retention times is used to determine the EPSA value of each compound of interest that's measured under the same condition using the equation as below: […]
The mixture of calibrations standard is reinjected every 20 compounds to validate the stability of the retention time.
The mobile phase modifier consists of ammonium formate LC_MS grade (>99%) (CAS number 540-69-2) diluted to 20 mM in HPLC grade Methanol (MeOH, CAS number 67-56-1) and liquid C02 SFC grade (CAS number 124-38-9).
Antipyrine (CAS number: 60-80-0) Chlorpromazine hydrochloride (CAS number: 69-09-0), desipramine hydrochloride (CAS number: […]), pindolol (CAS Number: 13523-86-9), diclofenac (CAS number: 15307-79-6)), m-nitro benzoic acid (CAS number: 121-92-6), bumetanide (CAS number: 28395-03-1), furosemide (CAS number: 54-31-9) were purchased from Sigma Aldrich (Steihneim, Germany).
All analyses were performed on a ultra performance convergence chromatography (UPC™) apparatus (Waters, Milford, MA, USA) equipped with a sample manager, a binary solvent delivery pump (BSM), a column manager, a convergence manager (automated back pressure regulator), a photo diode array detector (DAD) with a high pressure flow cell, and a mass detector simple quadrupole QDa. After the UV detector, the effluent of the SFC was mixed with an eluent consist of mixture MeOH/water (+0.3% Ammonia) 95/5 delivered by a make up pump with a flow rate of 0.4 mL/min and then split to the QDa using a splitter. The instrument was controlled, and data were processed with Masslynx 4.1.
The Analyses were performed using a 4.6×50 mm Chirex 3014(S)-valine and (R)-1-(alpha- naphthyl) ethylamine column (Phenomenex, Le Pecq, France) with 5 um particle and 100A pore size. The flow rate was 4 mL/min with the outlet pressure set to 14 MPa. The injection volume was 2 μL. the mobile phase composition was varied from 5% to 60% modifier at 20%/ min in a linear gradient, holding at 60% for 1.45 min and reverting to the original 5% until the end of the run. Data are acquired during 5 min. An equilibration time of 1 min is applied between 2 injections resulting in an injection every 6 min. each sample is analyzed in duplicate, resulting in a sample to sample turnaround time of 12 min.
The column temperature was set to 35° C. The mass detector was used in full scan from 100 to 800 for small molecules and from 500 to 1200 for peptides.
Each sample is delivered by compound logistics from DMSO stock solution without dilution. The concentration is 1 mM and the volume is 60 μL.

Row | EPSA | Compound
1 | 150.1 Å^2 | CC(=O)N(C)CCCC[C@@H]1NC(=O)[C@H](Cc2c[nH]c3c(C)cccc23)NC(=O)[C@H]([C@@H](C)O)NC(=O)[C@H](CC(=O)N(C)C)NC(=O)[C@@H](NC(=O)CCOCCOCC[N+](C)(C)C)C(C)(C)SSC(C)(C)[C@@H](C(=O)N[C@@H](Cc2ccc(OCCN)cc2)C(=O)N[C@@H](Cc2ccc3ccccc3c2)C(=O)NC2(C(=O)N[C@@H](CCN(C)C(C)=O)C(=O)N[C@@H](CC(N)=O)C(=O)N[C@@H](Cc3cccnc3)C(=O)N(C)CC(=O)N(C)C)CCC(F)(F)C2)NC1=O (single isomer, unassigned) [compound 180, cPEG3aCO-Pen(3)-N(N(Me)2)-T-7MeW-K(NMeAc)-Pen(3)-AEF-2Nal-diFCpx-Dab(NMeAc)-N-3Pya-Sar-CON(Me)2]
2 | 142.87 Å^2 | CC(=O)N(C)CCCC[C@@H]1NC(=O)[C@H](Cc2c[nH]c3c(C)cccc23)NC(=O)[C@H]([C@@H](C)O)NC(=O)[C@H](CC(=O)N(C)C)NC(=O)[C@@H](NC(=O)CCOCCOCC[N+](C)(C)C)C(C)(C)SSC(C)(C)[C@@H](C(=O)N[C@@H](Cc2ccc(OCC3CCC([N+](C)(C)C)CC3)cc2)C(=O)N[C@@H](Cc2ccc3ccccc3c2)C(=O)NC2(C(=O)N[C@@H](CCCCN(C)C(C)=O)C(=O)N[C@@H](CC(N)=O)C(=O)N[C@@H](Cc3cccnc3)C(=O)N(C)CC(=O)N(C)C)CCOCC2)NC1=O (single isomer, unassigned) [compound 222, cPEG3aCO-Pen(3)-N(N(Me)2)-T-7MeW-K(NMeAc)-Pen(3)-ACHMF-2Nal-THP-K(NMeAc)-N-3Pya-Sar-CON(Me)2]

Same assay, conditions: SFC on Chirex 3014 column; sample 1 mM DMSO stock; read-out: EPSA

Row | EPSA | Compound
3 | 145 A^2 | CC(=O)N(C)CCCC[C@@H]1NC(=O)[C@H](Cc2c[nH]c3c(C)cccc23)NC(=O)[C@H]([C@@H](C)O)NC(=O)[C@H](CC(=O)N(C)C)NC(=O)[C@@H](NC(=O)CCOCCOCC[N+](C)(C)C)C(C)(C)SSC(C)(C)[C@@H](C(=O)N[C@@H](Cc2ccc(OCC3CCC([N+](C)(C)C)CC3)cc2)C(=O)N[C@@H](Cc2ccc3ccccc3c2)C(=O)NC2(C(=O)N[C@@H](CCCCN(C)C(C)=O)C(=O)N[C@@H](CC(N)=O)C(=O)N[C@@H](Cc3cccnc3)C(=O)N(C)CC(=O)N(C)C)CCOCC2)NC1=O (single isomer, unassigned) [compound 210, cPEG3aCO-Pen(3)-N(N(Me)2)-T-7MeW-K(NMeAc)-Pen(3)-ACHMF-2Nal-THP-K(NMeAc)-N-3Pya-Sar-CON(Me)2]
4 | 166 A^2 | CC(=O)NCCCC[C@@H]1NC(=O)[C@H](Cc2c[nH]c3c(C)cccc23)NC(=O)[C@H]([C@@H](C)O)NC(=O)[C@H](CC(N)=O)NC(=O)[C@@H](NC(C)=O)C(C)(C)SSC(C)(C)[C@@H](C(=O)N[C@@H](Cc2ccc(OCC3CCC([N+](C)(C)C)CC3)cc2)C(=O)N[C@@H](Cc2ccc3ccccc3c2)C(=O)NC2(C(=O)N[C@@H](CCCCNC(C)=O)C(=O)N[C@@H](CC(N)=O)C(=O)N[C@@H](Cc3cccnc3)C(=O)N(C)CC(N)=O)CCOCC2)NC1=O (single isomer, unassigned) [compound 530, MeCO-Pen(3)-N-T-7MeW-K(Ac)-Pen(3)-ACHMF(S*, S*)-2Nal-THP-K(Ac)-N-3Pya-Sar-CONH2]
5 | 169 A^2 | CC(=O)NCCCC[C@@H]1NC(=O)[C@H](Cc2c[nH]c3c(C)cccc23)NC(=O)[C@H]([C@@H](C)O)NC(=O)[C@H](CC(N)=O)NC(=O)[C@@H](NC(C)=O)C(C)(C)SSC(C)(C)[C@@H](C(=O)N[C@@H](Cc2ccc(OCCN)cc2)C(=O)N[C@@H](Cc2ccc3ccccc3c2)C(=O)NC2(C(=O)N[C@@H](CCC(=O)O)C(=O)N[C@@H](CC(N)=O)C(=O)N[C@@H](Cc3cccnc3)C(=O)N(C)CC(=O)N3CCOCC3)CCOCC2)NC1=O [SEQ ID 112, MeCO-Pen(3)—N-T-7MeW—K(Ac)-Pen(3)-AEF-2Nal-THIP-E-N-3Pya-Sar-COMor]
6 | 168 A^2 | CC(=O)NCCCC[C@@H]1NC(=O)[C@H](Cc2c[nH]c3c(C)cccc23)NC(=O)[C@H]([C@@H](C)O)NC(=O)[C@H](CC(N)=O)NC(=O)[C@@H](NC(C)=O)C(C)(C)SSC(C)(C)[C@@H](C(=O)N[C@@H](Cc2ccc(OCCN)cc2)C(=O)N[C@@H](Cc2ccc3ccccc3c2)C(=O)N[C@@](C)(CCCCN)C(=O)N[C@H](CCCCNC(C)=O)C(=O)N[C@@H](CC(N)=O)C(=O)N[C@H](CCCCN)C(=O)N(C)[C@H](Cc2ccc(O)cc2)C(N)=O)NC1=O [compound 5, MeCO-Pen(3)-N-T-7MeW-K(Ac)-Pen(3)-AEF-2Nal-aMeK-k(Ac)-N-dK-NMeDTyr-CONH2] (Ac-[Pen]NT[Trp(7-Me)]K(Ac)[Pen][AEF][2Nal][αMeK][dK](Ac)N[dK][dNMeY]-NH2; disulfide 1-6)
7 | 170 A^2 | CC(=O)NCCCC[C@@H]1NC(=O)[C@H](Cc2c[nH]c3c(C)cccc23)NC(=O)[C@H]([C@@H](C)O)NC(=O)[C@H](CC(N)=O)NC(=O)[C@@H](NC(C)=O)C(C)(C)SSC(C)(C)[C@@H](C(=O)N[C@@H](Cc2ccc(OCCN)cc2)C(=O)N[C@@H](Cc2ccc3ccccc3c2)C(=O)N[C@@](C)(CCCCN)C(=O)N[C@@H](CCCCNC(C)=O)C(=O)N[C@@H](CC(N)=O)C(=O)N[C@@H](Cc2ccccc2)C(=O)N(C)[C@H](Cc2ccc(O)cc2)C(N)=O)NC1=O [compound 7, MeCO-Pen(3)-N-T-7MeW-K(Ac)-Pen(3)-AEF-2Nal-aMeK-K(Ac)-N-F-NMeDTyr-CONH2] (Ac-[Pen]NT[Trp(7-Me)]K(Ac)[Pen][AEF][2Nal][αMeK]K(Ac)NF[dNMeY]-NH2; disulfide 1-6)
8 | 169 A^2 | CC(=O)NCCCC[C@@H]1NC(=O)[C@H](Cc2c[nH]c3c(C)cccc23)NC(=O)[C@H]([C@@H](C)O)NC(=O)[C@H](CC(N)=O)NC(=O)[C@@H](NC(C)=O)C(C)(C)SSC(C)(C)[C@@H](C(=O)N[C@@H](Cc2ccc(OCCN)cc2)C(=O)N[C@@H](Cc2ccc3ccccc3c2)C(=O)N[C@@](C)(CCCCN)C(=O)N[C@@H](CCCCNC(C)=O)C(=O)N[C@@H](CC(N)=O)C(=O)N[C@@H](Cc2c[nH]cn2)C(=O)N(C)[C@H](Cc2ccc(O)cc2)C(N)=O)NC1=O [compound 8, MeCO-Pen(3)-N-T-7MeW-K(Ac)-Pen(3)-AEF-2Nal-aMeK-K(Ac)-N-H-NMeDTyr-CONH2] (Ac-[Pen]NT[Trp(7-Me)]K(Ac)[Pen][AEF][2Nal][αMeK]K(Ac)NH[dNMeY]-NH2; disulfide 1-6 (inferred))
9 | 187 A^2 | CC(=O)NCCCC[C@@H]1NC(=O)[C@H](Cc2c[nH]c3c(C)cccc23)NC(=O)[C@H]([C@@H](C)O)NC(=O)[C@H](CC(N)=O)NC(=O)[C@@H](NC(=O)[C@@H](CCCNC(=N)N)NC(C)=O)C(C)(C)SSC(C)(C)[C@@H](C(=O)N[C@@H](Cc2ccc(OCCN)cc2)C(=O)N[C@@H](Cc2ccc3ccccc3c2)C(=O)N[C@@](C)(CCCCN)C(=O)N[C@@H](CCC(=O)O)C(=O)N[C@@H](CC(N)=O)C(=O)N[C@@H](Cc2c[nH]cn2)C(=O)N(C)[C@H](Cc2ccc(O)cc2)C(N)=O)NC1=O [compound 9, MeCO-r-Pen(3)-N-T-7MeW-K(Ac)-Pen(3)-AEF-2Nal-aMeK-E-N-H-NMeDTyr-CONH2] (Ac-[dR][Pen]NT[Trp(7-Me)]K(Ac)[Pen][AEF][2Nal][αMeK]ENH[dNMeY]-NH2; disulfide 2-7)
10 | 174 A^2 | CC(=O)NCCCC[C@@H]1NC(=O)[C@H](Cc2c[nH]c3c(C)cccc23)NC(=O)[C@H]([C@@H](C)O)NC(=O)[C@H](CC(N)=O)NC(=O)[C@@H](NC(C)=O)C(C)(C)SSC(C)(C)[C@@H](C(=O)N[C@@H](Cc2ccc(OCCN)cc2)C(=O)N[C@@H](Cc2ccc3ccccc3c2)C(=O)N[C@@](C)(CCCCN)C(=O)N[C@@H](CCCCNC(C)=O)C(=O)N[C@@H](CC(N)=O)C(=O)N[C@@H](CC(N)=O)C(=O)N(C)[C@H](Cc2ccc(O)cc2)C(N)=O)NC1=O [compound 13, MeCO-Pen(3)-N-T-7MeW-K(Ac)-Pen(3)-AEF-2Nal-aMeK-K(Ac)-N-N-NMeDTyr-CONH2] (Ac-[Pen]NT[Trp(7-Me)]K(Ac)[Pen][AEF][2Nal][αMeK]K(Ac)NN[dNMeY]-NH2; disulfide 1-6)
